Values joined by “and” are separate entries in the source; they are usually repeats but may differ in a detail not shown here. Identical values can stand only once.
These compounds were tested against T1, Human ATX protein (Homo sapiens, UniProt Q13822) (assay: ATX biochemical assay (FRET, FS-3 substrate)). Conditions: FRET assay, FS-3 2 μM, ATX 1.0 μg/mL, 30 minutes preincubation, 2 hours reaction at room temperature; read-out: IC50.
T1 construct: made in house
Procedure, shortened: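 FRET read-out: cleavage of FS-3 (2 μM final) unquenches fluorescein, measured at 485/538 nm after 2 h at room temperature. Before substrate addition, in-house-expressed human autotaxin (1.0 μg/mL) sat with compound for 30 min in pH 7.4 Tris/NaCl/KCl/CaCl2/MgCl2 buffer containing fatty acid free-BSA at 1 mg/mL.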

IC50	Compound
≤ 100 nM	CCOC(=O)[C@H]1CC[C@@H](CC(=O)N2CCc3c(C(F)(F)F)nn(Cc4cc(F)cc(Cl)c4)c3C2)CC1 [Example 2-4, cis-ethyl 4-(2-(1-(3-chloro-5-fluorobenzyl)-3-(trifluoromethyl)-4,5-dihydro-1H-pyrazolo[3,4-c]pyridin-6(7H)-yl)-2-oxoethyl)cyclohexanecarboxylate]
≤ 100 nM	COC(=O)[C@H]1CC[C@@H](NC(=O)N2CCc3c(C(F)(F)F)nn(Cc4ccc(Cl)cc4F)c3C2)CC1 [Example 3-1, cis-Methyl 4-(1-(4-chloro-2-fluorobenzyl)-3-(trifluoromethyl)-4,5,6,7-tetrahydro-1H-pyrazolo[3,4-c]pyridine-6-carboxamido)cyclohexanecarboxylate]
100 to 250 nM	COC(=O)[C@H]1CC[C@H](NC(=O)N2CCc3c(C(F)(F)F)nn(Cc4ccc(Cl)cc4F)c3C2)CC1 [Example 3-2, trans-Methyl 4-(1-(4-chloro-2-fluorobenzyl)-3-(trifluoromethyl)-4,5,6,7-tetrahydro-1H-pyrazolo[3,4-c]pyridine-6-carboxamido)cyclohexanecarboxylate]
> 500 nM and ≤ 10000 nM	COC(=O)[C@H]1CC[C@@H](N(C)C(=O)N2CCc3c(C(F)(F)F)nn(Cc4ccc(Cl)cc4F)c3C2)CC1 [Example 3-3, cis-Methyl 4-(1-(4-chloro-2-fluorobenzyl)-N-methyl-3-(trifluoromethyl)-4,5,6,7-tetrahydro-1H-pyrazolo[3,4-c]pyridine-6-carboxamido)cyclohexanecarboxylate]
100 to 250 nM	COC(=O)[C@H]1CC[C@H](N(C)C(=O)N2CCc3c(C(F)(F)F)nn(Cc4ccc(Cl)cc4F)c3C2)CC1 [Example 3-4, trans-Methyl 4-(1-(4-chloro-2-fluorobenzyl)-N-methyl-3-(trifluoromethyl)-4,5,6,7-tetrahydro-1H-pyrazolo[3,4-c]pyridine-6-carboxamido)cyclohexanecarboxylate]
≤ 100 nM	CCOC(=O)C1CCC(OC(=O)N2CCc3c(C(F)(F)F)nn(Cc4ccc(Cl)cc4F)c3C2)CC1 (stereo not drawn) [Example 4-1, 4-(Ethoxycarbonyl)cyclohexyl1-(4-chloro-2-fluorobenzyl)-3-(trifluoromethyl)-4,5-dihydro-1H-pyrazolo[3,4-c]pyridine-6(7H)-carboxylate]
≤ 100 nM	O=C(C[C@H]1CC[C@H](C(=O)O)CC1)N1CCc2c(C(F)(F)F)nn(Cc3ccc(Cl)cc3F)c2C1 [Example 5-1, trans-4-(2-(1-(4-Chloro-2-fluorobenzyl)-3-(trifluoromethyl)-4,5-dihydro-1H-pyrazolo[3,4-c]pyridin-6(7H)-yl)-2-oxoethyl)cyclohexanecarboxylic acid]
≤ 100 nM	O=C(C[C@H]1CC[C@@H](C(=O)O)CC1)N1CCc2c(C(F)(F)F)nn(Cc3ccc(Cl)cc3F)c2C1 [Example 5-2, cis-4-(2-(1-(4-Chloro-2-fluorobenzyl)-3-(trifluoromethyl)-4,5-dihydro-1H-pyrazolo[3,4-c]pyridin-6(7H)-yl)-2-oxoethyl)cyclohexanecarboxylic acid]
≤ 100 nM	O=C(C[C@H]1CC[C@H](C(=O)O)CC1)N1CCc2c(C(F)(F)F)nn(Cc3cc(F)cc(Cl)c3)c2C1 [Example 5-3, trans-4-(2-(1-(3-chloro-5-fluorobenzyl)-3-(trifluoromethyl)-4,5-dihydro-1H-pyrazolo[3,4-c]pyridin-6(7H)-yl)-2-oxoethyl)cyclohexanecarboxylic acid]
≤ 100 nM	O=C(C[C@H]1CC[C@@H](C(=O)O)CC1)N1CCc2c(C(F)(F)F)nn(Cc3cc(F)cc(Cl)c3)c2C1 [Example 5-4, cis-4-(2-(1-(3-chloro-5-fluorobenzyl)-3-(trifluoromethyl)-4,5-dihydro-1H-pyrazolo[3,4-c]pyridin-6(7H)-yl)-2-oxoethyl)cyclohexanecarboxylic acid]
≤ 100 nM	O=C(O)c1ccc(CC(=O)N2CCc3c(C(F)(F)F)nn(Cc4ccc(Cl)cc4F)c3C2)cc1 [Example 5-5, 4-(2-(1-(4-Chloro-2-fluorobenzyl)-3-(trifluoromethyl)-4,5-dihydro-1H-pyrazolo[3,4-c]pyridin-6(7H)-yl)-2-oxoethyl)benzoic acid]
≤ 100 nM	O=C(N[C@H]1CC[C@@H](C(=O)O)CC1)N1CCc2c(C(F)(F)F)nn(Cc3ccc(Cl)cc3F)c2C1 [Example 5-6, cis-4-(1-(4-chloro-2-fluorobenzyl)-3-(trifluoromethyl)-4,5,6,7-tetrahydro-1H-pyrazolo[3,4-c]pyridine-6-carboxamido)cyclohexanecarboxylic acid]
≤ 100 nM	O=C(N[C@H]1CC[C@H](C(=O)O)CC1)N1CCc2c(C(F)(F)F)nn(Cc3ccc(Cl)cc3F)c2C1 [Example 5-7, trans-4-(1-(4-Chloro-2-fluorobenzyl)-3-(trifluoromethyl)-4,5,6,7-tetrahydro-1H-pyrazolo[3,4-c]pyridine-6-carboxamido)cyclohexanecarboxylic acid]
≤ 100 nM	O=C(NC12CCC(C(=O)O)(CC1)CC2)N1CCc2c(C(F)(F)F)nn(Cc3ccc(Cl)cc3F)c2C1 [Example 5-8, 4-(1-(4-Chloro-2-fluorobenzyl)-3-(trifluoromethyl)-4,5,6,7-tetrahydro-1H-pyrazolo[3,4-c]pyridine-6-carboxamido)bicyclo[2.2.2]octane-I-carboxylic acid]
≤ 100 nM	CN(C(=O)N1CCc2c(C(F)(F)F)nn(Cc3ccc(Cl)cc3F)c2C1)[C@H]1CC[C@@H](C(=O)O)CC1 [Example 5-9, cis-4-(1-(4-Chloro-2-fluorobenzyl)-N-methyl-3-(trifluoromethyl)-4,5,6,7-tetrahydro-1H-pyrazolo[3,4-c]pyridine-6-carboxamido)cyclohexanecarboxylic acid]
≤ 100 nM	CN(C(=O)N1CCc2c(C(F)(F)F)nn(Cc3ccc(Cl)cc3F)c2C1)[C@H]1CC[C@H](C(=O)O)CC1 [Example 5-10, trans-4-(1-(4-Chloro-2-fluorobenzyl)-N-methyl-3-(trifluoromethyl)-4,5,6,7-tetrahydro-1H-pyrazolo[3,4-c]pyridine-6-carboxamido)cyclohexanecarboxylic acid]
≤ 100 nM	O=C(O)C12CCC(C(=O)N3CCc4c(C(F)(F)F)nn(Cc5ccc(F)cc5)c4C3)(CC1)CC2 [Example 5-11, 4-(1-(4-Fluorobenzyl)-3-(trifluoromethyl)-4,5,6,7-tetrahydro-1H-pyrazolo[3,4-c]pyridine-6-carbonyl)bicyclo[2.2.2]octane-1-carboxylic acid]
≤ 100 nM	O=C(CC12CCC(C(=O)O)(CC1)CC2)N1CCc2c(C(F)(F)F)nn(Cc3ccc(Cl)cc3F)c2C1 [Example 5-12, 4-(2-(1-(4-Chloro-2-fluorobenzyl)-3-(trifluoromethyl)-4,5-dihydro-1H-pyrazolo[3,4-c]pyridin-6(7H)-yl)-2-oxoethyl)bicyclo[2.2.2]octane-1-carboxylic acid]
≤ 100 nM	O=C(CC12CCC(C(=O)O)(CC1)CC2)N1CCc2c(C(F)(F)F)nn(Cc3ccc(F)cc3)c2C1 [Example 5-13, 4-(2-(1-(4-Fluorobenzyl)-3-(trifluoromethyl)-4,5-dihydro-1H-pyrazolo[3,4-c]pyridin-6(7H)-yl)-2-oxoethyl)bicyclo[2.2.2]octane-1-carboxylic acid]
≤ 100 nM	Cc1ccc(Cn2nc(C(F)(F)F)c3c2CN(C(=O)C[C@H]2CC[C@H](C(=O)O)CC2)CC3)cc1 [Example 5-14, trans-4-(2-(1-(4-Methylbenzyl)-3-(trifluoromethyl)-4,5-dihydro-1H-pyrazolo[3,4-c]pyridin-6(7H)-yl)-2-oxoethyl)cyclohexanecarboxylic acid]
≤ 100 nM	COc1ccc(Cn2nc(C(F)(F)F)c3c2CN(C(=O)C[C@H]2CC[C@H](C(=O)O)CC2)CC3)cc1 [Example 5-15, trans-4-(2-(1-(4-Methoxylbenzyl)-3-(trifluoromethyl)-4,5-dihydro-1H-pyrazolo[3,4-c]pyridin-6(7H)-yl)-2-oxoethyl)cyclohexanecarboxylic acid]
100 to 250 nM	O=C(C[C@H]1CC[C@H](C(=O)O)CC1)N1CCc2c(C(F)(F)F)nn(CCc3ccccc3)c2C1 [Example 5-16, trans-4-(2-Oxo-2-(1-phenethyl-3-(trifluoromethyl)-4,5-dihydro-1H-pyrazolo[3,4-c]pyridin-6(7H)-yl)ethyl)cyclohexanecarboxylic acid]
≤ 100 nM	O=C(C[C@H]1CC[C@H](C(=O)O)CC1)N1CCc2c(C(F)(F)F)nn(Cc3ccc(Cl)s3)c2C1 [Example 5-17, trans-4-(2-(1-((5-chlorothiophen-2-yl)methyl)-3-(trifluoromethyl)-4,5-dihydro-1H-pyrazolo[3,4-c]pyridin-6(7H)-yl)-2-oxoethyl)cyclohexanecarboxylic acid]
≤ 100 nM	CC(c1ccc(F)cc1)n1nc(C(F)(F)F)c2c1CN(C(=O)C[C@H]1CC[C@H](C(=O)O)CC1)CC2 (stereo partly drawn) [Example 5-19, trans-4-(2-(1-(1-(4-Fluorophenyl)ethyl)-3-(trifluoromethyl)-4,5-dihydro-1H-pyrazolo[3,4-c]pyridin-6(7H)-yl)-2-oxoethyl)cyclohexanecarboxylic acid]
≤ 100 nM	CC(c1ccc(F)cc1)n1nc(C(F)(F)F)c2c1CN(C(=O)C[C@H]1CC[C@@H](C(=O)O)CC1)CC2 (stereo partly drawn) [Example 5-20, cis-4-(2-(1-(1-(4-Fluorophenyl)ethyl)-3-(trifluoromethyl)-4,5-dihydro-1H-pyrazolo[3,4-c]pyridin-6(7H)-yl)-2-oxoethyl)cyclohexanecarboxylic acid]
≤ 100 nM	O=C(C[C@H]1CC[C@H](C(=O)O)CC1)N1CCc2c(C(F)(F)F)nn(Cc3cccnc3)c2C1 [Example 5-22, trans-4-(2-Oxo-2-(1-(pyridin-3-ylmethyl)-3-(trifluoromethyl)-4,5-dihydro-1H-pyrazolo[3,4-c]pyridin-6(7H)-yl)ethyl)cyclohexanecarboxylic acid]

Compound	IC50
CC(C)(C)OC(=O)N1CC(CC(=O)N2CCc3c(C(F)(F)F)nn(Cc4ccc(Cl)cc4F)c3C2)C[C@H]1C(=O)O (stereo partly drawn) [Example 5-18, (2S)-1-(tert-Butoxycarbonyl)-4-(2-(1-(4-chloro-2-fluorobenzyl)-3-(trifluoromethyl)-4,5-dihydro-1H-pyrazolo[3,4-c]pyridin-6(7H)-yl)-2-oxoethyl)pyrrolidine-2-carboxylic acid]	≤ 100 nM

Reference: patent US10144732B2 (BIOGEN MA INC., priority 2014, dated 2018)
